{
  "source": "patent US11839207B1",
  "about": "“Essential oil-containing formulation for insecticide use, fertilizer application, and/or fertilizer coating” (priority 2019, dated 2023)",
  "type_in_all_cases": "in vivo",
  "key": {"Anopheles": {"tested_on": "Anopheles", "test": "Arm-in-cage (AIC) repellency test, Anopheles", "settings": "1 ml per 600 cm^2 on forearm", "description": "(§1) Additional testing was conducted comparing the inventive formulation to DEET for the purposes of comparing insect repellency. In many insect repellency studies, there is often a lack of side-by-side comparisons for two or more insect repellents. The study conducted in connection with the inventive formulation sought to address this problem by directly comparing the two insect repellents based on the same active contents, i.e., 15% by weight. The study was conducted using both field testing and laboratory conditions. The tested formulation included ethanolic solutions of 15% DEET (m/m) and 15% of the inventive formulation, and the composition tested corresponded to the target composition described above. […] Under laboratory conditions, the efficacy of mosquito repellents is typically evaluated in the so-called “arm-in-cage” (AIC) test. […] In the field, similar endpoints may be determined on the basis of mosquitoes landing or biting on an exposed skin area, usually the lower leg, while the mosquitoes are collected by aspiration allowing for the identification of the mosquito species in a laboratory. […] In the AIC test the protection time of a repellent is assessed by exposing a treated forearm to hungry mosquitoes at regular intervals (grown from larvae and not fed for 12 hours before the test). The cages measured 16″×16″×14″ and were made of clear glass with an opening on the front side. […]"}, "Culex": {"tested_on": "Culex", "test": "Arm-in-cage (AIC) repellency test, Culex", "settings": "1 ml per 600 cm^2 on forearm", "description": "as §1"}, "mosquitoes": {"tested_on": "mosquitoes", "test": "Field repellency test, human landing catch (HLC) method", "settings": "relative protection percentages shown in the FIGURE", "description": "Additional testing was conducted comparing the inventive formulation to DEET for the purposes of comparing insect repellency. In many insect repellency studies, there is often a lack of side-by-side comparisons for two or more insect repellents. The study conducted in connection with the inventive formulation sought to address this problem by directly comparing the two insect repellents based on the same active contents, i.e., 15% by weight. The study was conducted using both field testing and laboratory conditions. […] Under laboratory conditions, the efficacy of mosquito repellents is typically evaluated in the so-called “arm-in-cage” (AIC) test. […] In the field, similar endpoints may be determined on the basis of mosquitoes landing or biting on an exposed skin area, usually the lower leg, while the mosquitoes are collected by aspiration allowing for the identification of the mosquito species in a laboratory. […] The application volume was estimated on the basis of the surface area, calculated as the average of the circumferences just below the knee, the calf and the ankle, multiplied by the length of the lower leg, measured from below the knee to the ankle. […] Raw data was recorded on paper forms. […] The endpoint measured in the experiments was the number of mosquitoes landing on the bare skin during each exposure period. […]"}, "Aedes": {"tested_on": "Aedes", "test": "Arm-in-cage (AIC) repellency test, Aedes", "settings": "1 ml per 600 cm^2 on forearm", "description": "as §1"}},
  "data": [
    {"smiles": "CCN(CC)C(=O)c1cccc(C)c1", "note": "[15% DEET, DEET]", "values": [
      {"measurement": "median CPT (complete protection time) in the AIC tests", "setting": "Anopheles", "value": 2, "unit": "h"},
      {"measurement": "median CPT (complete protection time) in the AIC tests", "setting": "Culex", "value": 2, "unit": "h"},
      {"measurement": "efficacy in comparative study between AIC test and HLC method in the field", "setting": "mosquitoes", "value": "comparable efficacy"},
      {"measurement": "median CPT (complete protection time) in the AIC tests", "setting": "Aedes", "value": 0.5, "unit": "h"}
    ]}
  ]
}
